# Test results as given in ChEMBL document CHEMBL1138537, “Small-molecule scaffolds for CYP51 inhibitors identified by high-throughput screening and defined by X-ray crystallography” (Antimicrob Agents Chemother, 2007).
# Activity calls are given as the source filed them. The calls are words filed in the database; no cut-off is given here.
# Experiments:
# [1] = target: T1, Sterol 14alpha-demethylase (Mycobacterium tuberculosis, UniProt P9WPP9)
# T1 sequence (P9WPP9 whole entry): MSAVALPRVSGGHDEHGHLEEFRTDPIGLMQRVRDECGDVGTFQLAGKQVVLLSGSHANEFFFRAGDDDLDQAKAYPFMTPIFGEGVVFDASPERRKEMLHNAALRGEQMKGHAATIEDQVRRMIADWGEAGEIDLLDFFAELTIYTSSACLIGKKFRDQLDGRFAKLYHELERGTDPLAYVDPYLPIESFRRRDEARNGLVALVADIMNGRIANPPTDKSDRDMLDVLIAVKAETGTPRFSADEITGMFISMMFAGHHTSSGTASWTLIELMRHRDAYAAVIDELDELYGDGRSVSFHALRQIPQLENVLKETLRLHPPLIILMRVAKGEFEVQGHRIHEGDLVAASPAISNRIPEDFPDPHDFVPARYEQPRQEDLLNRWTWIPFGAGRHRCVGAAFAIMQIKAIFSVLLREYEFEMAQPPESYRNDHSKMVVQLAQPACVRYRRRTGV
# [2] = target: T1, Sterol 14alpha-demethylase; remark: listed apart in the source
# [3] = tested on: Mycobacterium tuberculosis; assay: Antimycobacterial activity against Mycobacterium tuberculosis H37Rv at 100 uM after 4 days by alamar blue assay; assay type: functional, organism-based
# [4] = target: T2, Steroid C26-monooxygenase (Mycobacterium tuberculosis, UniProt P9WPP1)
# T2 sequence (P9WPP1 whole entry): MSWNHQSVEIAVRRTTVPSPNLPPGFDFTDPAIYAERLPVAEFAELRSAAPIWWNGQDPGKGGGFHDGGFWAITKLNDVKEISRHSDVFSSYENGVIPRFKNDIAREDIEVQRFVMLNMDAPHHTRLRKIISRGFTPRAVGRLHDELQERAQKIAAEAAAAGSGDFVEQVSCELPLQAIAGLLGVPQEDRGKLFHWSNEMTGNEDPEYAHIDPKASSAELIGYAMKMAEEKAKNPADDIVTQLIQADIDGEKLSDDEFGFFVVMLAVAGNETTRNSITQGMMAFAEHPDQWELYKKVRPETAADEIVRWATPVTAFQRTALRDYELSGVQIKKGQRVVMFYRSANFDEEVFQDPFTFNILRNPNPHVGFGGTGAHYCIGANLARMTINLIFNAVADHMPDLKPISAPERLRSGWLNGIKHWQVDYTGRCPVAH
# [5] = tested on: Mycobacterium tuberculosis; assay: Antimycobacterial activity against Mycobacterium tuberculosis H37Rv at 200 uM after 4 days by alamar blue assay; assay type: functional, organism-based
# Cytochrome P450 130 = target: T3, Cytochrome P450 130 (Mycobacterium tuberculosis, UniProt P9WPN5)
# T3 sequence (P9WPN5 whole entry): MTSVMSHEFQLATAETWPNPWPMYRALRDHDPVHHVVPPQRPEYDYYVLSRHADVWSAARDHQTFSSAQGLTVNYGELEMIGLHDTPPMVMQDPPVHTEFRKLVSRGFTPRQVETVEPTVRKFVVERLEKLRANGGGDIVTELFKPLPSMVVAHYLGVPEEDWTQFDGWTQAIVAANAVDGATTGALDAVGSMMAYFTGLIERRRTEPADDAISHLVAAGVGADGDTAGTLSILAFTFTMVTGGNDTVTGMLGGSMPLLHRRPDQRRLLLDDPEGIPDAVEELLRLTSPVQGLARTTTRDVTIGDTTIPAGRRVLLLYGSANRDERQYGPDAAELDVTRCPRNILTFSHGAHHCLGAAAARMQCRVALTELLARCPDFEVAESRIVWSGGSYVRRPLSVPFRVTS
# [6] = tested on: Mycobacterium tuberculosis; assay: Antimycobacterial activity against Mycobacterium tuberculosis H37Rv at 500 uM after 4 days by alamar blue assay; assay type: functional, organism-based
# [7] = tested on: Mycobacterium tuberculosis; assay: Antimycobacterial activity against Mycobacterium tuberculosis H37Rv at 250 uM after 4 days by alamar blue assay; assay type: functional, organism-based
smiles,measurement,setting,value
O=C(Nc1ccncc1)C1(c2ccccc2)CCOCC1,Kd,[1],5 µM
COc1ccccc1C(CCN)c1ccco1 (stereo not drawn),Kd,[1],5 µM
O=C1c2cc(O)ccc2-c2ccc(O)cc21,Kd,[2],25 µM
Nc1ccc(NS(=O)(=O)c2ccc(Cl)cc2)cc1,Kd,[1],5 µM
NCC(=O)N1c2ccccc2Sc2ccccc21,Kd,[1],5 µM
CCC1(C)CC(CCN)(c2ccc(OC)cc2)CCO1 (stereo not drawn),Kd,[1],5 µM
c1ccc(-c2c[nH]cn2)cc1,Kd,[2],1.3 µM
C[C@]12CC[C@@H]3c4ccc(O)cc4CC[C@H]3[C@@H]1C[C@@H](O)[C@@H]2O [ESTRIOL],Kd,[2],100 µM
O=C(Nc1ccncc1)C(NS(=O)(=O)c1cccc2nsnc12)c1ccccc1 (stereo not drawn),Kd,[1],5 µM
O=C(c1ccc(O)cc1)c1ccc(O)cc1,Kd,[2],28 µM
same,Activity,[3],Active
same,Activity,[4]; mycobacterium tuberculosis,Not Active
same,Activity,[5],Active
same,Activity,Cytochrome P450 130; mycobacterium tuberculosis,Not Active
CCC(C(=O)Nc1ccncc1)c1ccccc1 (stereo not drawn),Activity,[6],Active
same,Kd,[4],2000 µM
same,Activity,[7],Active
same,Kd,Cytochrome P450 130,260 µM
